The source of these data is patent US4182897A, “Amino- or guanidino-phenylpropionic acid derivatives” (Torii & Co., Ltd., priority 1977, dated 1980).

One test deals with T1, Trypsin (Bos taurus, UniProt P00760).
T1 sequence (P00760 24-246): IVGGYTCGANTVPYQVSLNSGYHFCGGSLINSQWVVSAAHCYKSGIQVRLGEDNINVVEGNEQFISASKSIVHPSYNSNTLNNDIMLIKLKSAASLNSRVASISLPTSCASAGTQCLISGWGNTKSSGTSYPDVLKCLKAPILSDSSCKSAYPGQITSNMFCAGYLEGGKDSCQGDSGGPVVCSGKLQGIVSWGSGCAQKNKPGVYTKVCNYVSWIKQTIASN
Description: Inhibitory effect on ester-hydrolyzing activity of trypsin (TAMe substrate). Type of test: biochemical. The conditions noted are these: for pIC50 / inhibitory action on trypsin: in vitro; for pIC50: tosylarginine methyl ester hydrolysis, read-out: ID50 (trypsin); for inhibition at 1000 µM: read-out: percent inhibition at 10^-3 M (trypsin). As for the experimental part: (A) Determination of Enzyme-inhibitory Activity: The enzyme-inhibitory activities in vitro of the compounds of this invention were measured by the following procedure according to the method of M. Muramatsu et al. [[…]. Makino, Y. Hayashi and S. Fujii: J. […] Then, 10 μmoles of the substrate, TAMe (tosylarginine methyl ester), was added, and incubation was performed at 37° C. for 30 minutes. After the incubation, 1.5 ml of 2 M alkaline hydroxylamine was added and thoroughly mixed, and allowed to stand at room temperature for 15 minutes.

The target in another test is Human Plasmin (Homo sapiens, UniProt P00747). Description: Inhibitory effect on ester-hydrolyzing activity of human plasmin (TAMe substrate). The class given is biochemical. Particulars: for inhibitory action on plasmin: in vitro; for inhibition at 1000 µM: read-out: percent inhibition at 10^-3 M (plasmin). The method, then:
(A) Determination of Enzyme-inhibitory Activity: The enzyme-inhibitory activities in vitro of the compounds of this invention were measured by the following procedure according to the method of M. Muramatsu et al. [[…]. Makino, Y. Hayashi and S. Fujii: J. […] (2) Inhibitory Effect on Ester-hydrolyzing Activity of Human Plasmin It was measured by using 0.1 ml of plasmin (generated by activation of plasminogen with streptokinase) and TAMe as substrate following the method described in (1).

The target of the next test is T2, Human Cl Esterase (Homo sapiens, UniProt P09871).
T2 sequence (P09871 438-688 limits assumed): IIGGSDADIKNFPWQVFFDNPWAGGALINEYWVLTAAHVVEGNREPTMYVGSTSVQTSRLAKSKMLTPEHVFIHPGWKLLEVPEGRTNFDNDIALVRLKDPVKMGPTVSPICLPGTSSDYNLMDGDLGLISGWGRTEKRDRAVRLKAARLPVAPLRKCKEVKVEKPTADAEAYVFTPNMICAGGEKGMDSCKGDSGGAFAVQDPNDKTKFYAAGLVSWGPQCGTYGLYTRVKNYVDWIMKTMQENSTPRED
T2 sequence (P09871 16-437 partner limits assumed): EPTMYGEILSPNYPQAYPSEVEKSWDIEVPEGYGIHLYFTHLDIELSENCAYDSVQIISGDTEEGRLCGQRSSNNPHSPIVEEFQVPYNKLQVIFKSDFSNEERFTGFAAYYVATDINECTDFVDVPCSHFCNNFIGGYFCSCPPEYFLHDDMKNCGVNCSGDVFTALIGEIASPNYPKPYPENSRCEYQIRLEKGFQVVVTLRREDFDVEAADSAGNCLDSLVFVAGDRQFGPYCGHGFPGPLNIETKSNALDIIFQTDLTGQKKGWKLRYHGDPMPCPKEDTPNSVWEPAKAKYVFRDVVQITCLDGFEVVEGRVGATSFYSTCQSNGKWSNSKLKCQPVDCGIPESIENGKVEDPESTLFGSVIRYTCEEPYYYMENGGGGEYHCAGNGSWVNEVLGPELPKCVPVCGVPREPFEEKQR
The test can be described thus: Inhibitory effect on ester-hydrolyzing activity of human Cl esterase (ATEe substrate). The class given is biochemical. The conditions noted are these: for inhibitory action on Cl esterase / pIC50: in vitro; for inhibition at 1000 µM: read-out: percent inhibition at 10^-3 M (Cl esterase); for pIC50: acetyltyrosine ethyl ester hydrolysis, read-out: ID50 (Cl esterase).

In the next test the target is Human Plasma Kallikrein (Homo sapiens, UniProt P03952). Description: Inhibitory effect on ester-hydrolyzing activity of human plasma kallikrein (TAMe substrate). Type of test: biochemical. Particulars: for inhibitory action on kallikrein: in vitro; for inhibition at 1000 µM: read-out: percent inhibition at 10^-3 M (kallikrein). As for the experimental part:
(A) Determination of Enzyme-inhibitory Activity: The enzyme-inhibitory activities in vitro of the compounds of this invention were measured by the following procedure according to the method of M. Muramatsu et al. [[…]. Makino, Y. Hayashi and S. Fujii: J.

The next test has as its target Bovine Thrombin (Bos taurus, UniProt P00735). The test can be described thus: Inhibitory effect on ester-hydrolyzing activity of bovine thrombin (TAMe substrate). The class given is biochemical. The conditions noted are these: for inhibition at 1000 µM: read-out: percent inhibition at 10^-3 M (thrombin); for inhibitory action on thrombin: in vitro. As for the experimental part: (4) Inhibitory Effect on Ester-Hydrolyzing Activity of Bovine Thrombin
It was measured by using 0.4 ml of bovine thrombin […], 0.02 M sodium phosphate buffer solution (pH 7.4) and TAMe as substrate following the method described in (1).

Test [1] concerns collagen induced platelet aggregation of rabbit PRP. The test can be described thus: Inhibition of collagen induced platelet aggregation of rabbit PRP. Type of test: cell-based. Particulars: Oryctolagus cuniculus; for inhibition at 2.5 µg/mL: 2.5 μg/ml; for inhibition at 5 µg/mL: 5.0 μg/ml; for inhibition at 10 µg/mL: 10.0 μg/ml. As for the experimental part: (B) Determination of Inhibitory Activity on Collagen Induced Platelet Aggregation:
According to the method of Born et al. [Born, G. V. R.: J. Physiol., 168. 178 (1963)], the platelet aggregation inhibition (%) was determined at various concentrations of compounds by the following procedure:
Rabbit PRP (platelet rich plasma), 0.9 ml, obtained from sodium citrate-added blood, was taken into a polyethylene tube and incubated at 37° C. for 1 minute, and then 10 μl of a compound solution or physiological saline as control, was added.
Subsequently, 0.1 ml of collagen solution was added, and change in absorbance of PRP, resulting from the progress of platelet aggregation, was determined by means of platelet aggregation meter and recorded.
Percent inhibition was calculated according to the following equation: [formula]

pIC50: −log10 of the molar value. Structures can show the parent of a compound that is named as a salt. Where two headings read alike, the source gives them in different places.

Chain of Human Plasmin (P00747 581-810 limits assumed): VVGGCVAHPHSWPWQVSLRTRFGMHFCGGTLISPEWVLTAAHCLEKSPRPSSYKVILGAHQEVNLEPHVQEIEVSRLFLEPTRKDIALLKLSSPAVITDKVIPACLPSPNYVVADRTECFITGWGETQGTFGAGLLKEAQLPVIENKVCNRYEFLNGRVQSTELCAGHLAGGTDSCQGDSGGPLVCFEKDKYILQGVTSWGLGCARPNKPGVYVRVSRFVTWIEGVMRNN
Chain of Human Plasmin (P00747 97-580 partner limits assumed): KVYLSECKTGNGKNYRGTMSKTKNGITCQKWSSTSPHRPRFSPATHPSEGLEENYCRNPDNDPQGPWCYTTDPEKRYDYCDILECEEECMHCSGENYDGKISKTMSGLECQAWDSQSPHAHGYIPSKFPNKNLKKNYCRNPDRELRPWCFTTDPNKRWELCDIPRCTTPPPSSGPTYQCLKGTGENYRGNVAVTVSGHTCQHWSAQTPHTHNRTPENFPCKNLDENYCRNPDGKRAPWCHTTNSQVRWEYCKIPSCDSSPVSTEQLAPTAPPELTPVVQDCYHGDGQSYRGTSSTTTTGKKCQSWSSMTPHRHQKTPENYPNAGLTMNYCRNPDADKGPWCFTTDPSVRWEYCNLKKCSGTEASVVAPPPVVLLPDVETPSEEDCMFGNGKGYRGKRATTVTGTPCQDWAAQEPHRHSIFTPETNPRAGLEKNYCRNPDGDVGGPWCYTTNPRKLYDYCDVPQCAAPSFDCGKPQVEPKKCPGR
Chain of Human Plasma Kallikrein (P03952 391-638 limits assumed): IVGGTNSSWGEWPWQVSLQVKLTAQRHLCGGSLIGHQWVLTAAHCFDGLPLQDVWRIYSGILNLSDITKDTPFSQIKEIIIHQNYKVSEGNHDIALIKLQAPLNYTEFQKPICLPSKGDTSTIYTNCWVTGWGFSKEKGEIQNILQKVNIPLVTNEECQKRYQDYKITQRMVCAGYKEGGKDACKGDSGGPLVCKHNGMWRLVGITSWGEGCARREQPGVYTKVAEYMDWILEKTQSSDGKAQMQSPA
Chain of Human Plasma Kallikrein (P03952 20-390 partner limits assumed): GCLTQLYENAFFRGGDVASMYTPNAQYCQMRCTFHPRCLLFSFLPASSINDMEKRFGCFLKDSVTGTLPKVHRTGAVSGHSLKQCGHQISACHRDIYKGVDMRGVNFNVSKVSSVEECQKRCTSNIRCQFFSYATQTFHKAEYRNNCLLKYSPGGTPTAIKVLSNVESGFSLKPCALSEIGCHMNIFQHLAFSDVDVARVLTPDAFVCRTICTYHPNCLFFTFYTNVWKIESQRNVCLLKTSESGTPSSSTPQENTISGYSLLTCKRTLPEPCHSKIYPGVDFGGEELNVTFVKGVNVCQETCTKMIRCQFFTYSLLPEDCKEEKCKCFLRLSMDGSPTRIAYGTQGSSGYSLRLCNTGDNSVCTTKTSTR
Description for Human Cl Esterase: It was measured by using 0.1 ml of Cl esterase, 0.1 ml of 0.02 M sodium phosphate buffer solution (pH 7.4) and 10 μmoles of ATEe (acetyltyrosine ethyl ester) as substrate following the method described in (1).

In the case of `CC(Cc1ccc(N)cc1)C(=O)Oc1ccc(Cl)cc1` (stereo not drawn) [Compound No. 2, p-Chlorophenyl α-methyl-β-(p-aminophenyl)-propionate hydrochloride], the pIC50 at Trypsin is 3.48.

As to `Cl.Nc1ccc(CCC(=O)Oc2ccccc2)cc1` [Compound No. 3, Phenyl β-(p-aminophenyl)-propionate hydrochloride], at Trypsin, the “inhibitory action on trypsin” value is on record as “no inhibitory action” and the inhibition at 1000 µM is under 10%. Further, at Human Plasmin, the “inhibitory action on plasmin” value is recorded as “no inhibitory action” and the inhibition at 1000 µM was under 10%. At Human Cl Esterase, the “inhibitory action on Cl esterase” value is recorded as “no inhibitory action” and the inhibition at 1000 µM is under 10%. At Human Plasma Kallikrein, the “inhibitory action on kallikrein” value is “no inhibitory action” and the inhibition at 1000 µM was under 10%. The pIC50 at Bovine Thrombin was 3.54.

`CCC(Cc1cccc(N)c1)C(=O)Oc1ccc(OC)cc1` (stereo not drawn) [Compound No. 4, p-Methoxyphenyl α-ethyl-β-(m-aminophenyl)-propionate hydrochloride]: the pIC50 at Trypsin (30 min) is 3.40. Moreover, the inhibition at 1000 µM at Human Plasmin was under 10%; at Human Cl Esterase it was 14.8%; on Human Plasma Kallikrein, under 10%; on Bovine Thrombin, under 10%.

In the case of `CCC(Cc1cccc(N)c1)C(=O)Oc1cccc2ccccc12` (stereo not drawn) [Compound No. 7, 1-naphthyl α-ethyl-β-(m-aminophenyl)-propionate], the pIC50 at Trypsin was 5.00. The inhibition at 1000 µM at Human Plasmin is under 10%. Besides, on Human Cl Esterase, the inhibition at 1000 µM was 11.7%. In addition, the inhibition at 1000 µM at Bovine Thrombin is under 10%. In addition, in test [1], the inhibition at 2.5 µg/mL is 37%, the inhibition at 5 µg/mL was determined as 84% and at 10 µg/mL the inhibition was 100%.

On to `CC(Cc1cccc(NC(=N)N)c1)C(=O)Oc1ccc(Cl)cc1` (stereo not drawn) [Compound No. 44, p-Chlorophenyl α-methyl-β-(m-guanidinophenyl)-propionate carbonate], for which the pIC50 on Human Cl Esterase was 3.60.

As to `Cc1ccc(OC(=O)C(C)Cc2ccc(NC(=N)N)cc2)cc1` (stereo not drawn) [Compound No. 45, p-Methylphenyl α-methyl-β-(p-guanidinophenyl)-propionate hydrochloride], the inhibition at 1000 µM on Trypsin is 21.4%; on Human Plasmin it was under 10%; at Human Plasma Kallikrein, under 10%; on Bovine Thrombin, under 10%. The pIC50 at Human Cl Esterase was 3.11.

Turning to `CC(Cc1cccc(NC(=N)N)c1)C(=O)Oc1ccccc1.O=C(O)O` (stereo not drawn) [Compound No. 46, Phenyl α-methyl-β-(m-guanidinophenyl)-propionate carbonate], on Trypsin, the “inhibitory action on trypsin” value is on record as “no inhibitory action” and the inhibition at 1000 µM worked out at 12.2%. In addition, at Human Plasmin, the “inhibitory action on plasmin” value was “no inhibitory action” and the inhibition at 1000 µM was under 10%. Also, the pIC50 at Human Cl Esterase is 3.51. On Human Plasma Kallikrein, the “inhibitory action on kallikrein” value is recorded as “no inhibitory action” and the inhibition at 1000 µM came to 12.9%. On Bovine Thrombin, the “inhibitory action on thrombin” value is “no inhibitory action” and the inhibition at 1000 µM was under 10%.

Regarding `CCOC(=O)c1ccc(OC(=O)CCc2ccc(NC(=N)N)cc2)cc1.Cl` [Compound No. 47, p-Ethoxycarbonylphenyl β-(p-guanidinophenyl)-propionate hydrochloride], the pIC50 at Trypsin is 4.11. Moreover, on Human Plasmin, the “inhibitory action on plasmin” value is recorded as “no inhibitory action” and the inhibition at 1000 µM was under 10%. On Human Cl Esterase, the “inhibitory action on Cl esterase” value is reported as “no inhibitory action” and the inhibition at 1000 µM was under 10%. On Human Plasma Kallikrein, the “inhibitory action on kallikrein” value was “no inhibitory action” and the inhibition at 1000 µM was determined as 36%. For the same molecule, on Bovine Thrombin, the “inhibitory action on thrombin” value is given as “no inhibitory action” and the inhibition at 1000 µM is 12.3%.

In test [1], `CC(=O)Oc1ccccc1C(=O)O` [aspirin, reference compound] displayed an inhibition at 5 µg/mL of 78% and an inhibition at 10 µg/mL of 100%.

Take `CC(Cc1cccc(N)c1)C(=O)Oc1ccc(Cl)cc1` (stereo not drawn) [compound 5, p-chlorophenyl α-methyl-β-(m-aminophenyl)-propionate]: the pIC50 at Trypsin was 5.00. In addition, the inhibition at 1000 µM at Human Plasmin, at Human Cl Esterase, on Human Plasma Kallikrein and at Bovine Thrombin was under 10% in each case.

As to `CCOC(=O)c1ccc(OC(=O)C(CC)Cc2ccc(N)cc2)cc1` (stereo not drawn) [compound 36, p-ethoxycarbonylphenyl α-ethyl-β-(p-aminophenyl)-propionate], the pIC50 on Trypsin is 3.77. Besides, the inhibition at 1000 µM was under 10% on Human Plasmin, under 10% at Human Cl Esterase, 15.9% at Human Plasma Kallikrein and 25.3% at Bovine Thrombin.

Consider `CC(Cc1cccc(NC(=N)N)c1)C(=O)Oc1cccc2ccccc12` (stereo not drawn) [compound 50, 1-naphthyl α-methyl-β-(m-guanidinophenyl)-propionate], for which the pIC50 on Trypsin is 4.24. The inhibition at 1000 µM on Human Plasmin turned out to be 42%. Also, the pIC50 on Human Cl Esterase was 3.85. In addition, at Bovine Thrombin, the inhibition at 1000 µM was under 10%. The same molecule came in with an inhibition at 1 µg/mL in test [1] (1.0 μg/ml) of 4%. For the same molecule, in test [1], 2.5 µg/mL produced 100% inhibition, testing at 5 µg/mL gave an inhibition of 100% and 10 µg/mL produced 100% inhibition.

For the molecule `CC(Cc1ccc(NC(=N)N)cc1)C(=O)Oc1ccc(Cl)cc1` (stereo not drawn) [compound 52, p-chlorophenyl α-methyl-β-(p-guanidinophenyl)-propionate], the values for the pIC50 on Trypsin and at Human Cl Esterase were 3.31 and 4.25, respectively. In addition, the inhibition at 1000 µM is 18.8% on Human Plasmin, 38.4% on Human Plasma Kallikrein and under 10% on Bovine Thrombin.

In the case of `CCC(Cc1cccc(NC(=N)N)c1)C(=O)Oc1ccccc1` (stereo not drawn) [compound 65, phenyl α-ethyl-β-(m-guanidinophenyl)-propionate], the inhibition at 1000 µM at Trypsin was 35%; at Human Plasmin, under 10%; on Human Plasma Kallikrein it was 15.6%; at Bovine Thrombin it was 16.8%. Further, at Human Cl Esterase, the pIC50 is 4.15.

`CCCCOc1ccc(OC(=O)CCc2ccc(NC(=N)N)cc2)cc1` [compound 71, p-n-butoxyphenyl β-(p-guanidinophenyl)-propionate]: the pIC50 at Trypsin was 3.18. Besides, the inhibition at 1000 µM is 20% on Human Plasmin, under 10% on Human Cl Esterase, 1.5% at Human Plasma Kallikrein and under 10% at Bovine Thrombin.

Broadly, the inhibition is the share of the control response that was lost under treatment.
